Measured values: the supplement of paper PMC10307832

How the values were obtained:
Experiment in all cases: relative viability (nuclei count vs DMSO), 5 days (fraction); higher = more cells survive
[1] = compound: CN1CCN(c2ccc3nc(-c4c(N)c5c(F)cccc5[nH]c4=O)[nH]c3c2)CC1 [Dovitinib] + COc1cccc2cc(-c3nc([C@H]4CC[C@H](C(=O)O)CC4)n4ncnc(N)c34)[nH]c12 [OSI-027] (partner 0.5 µM)
How it was run: (§1)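 Lung cancer cell lines were seeded in 1536-well plates and dosed by pin tool the next day, with either a single drug or a fixed anchor-drug dose combined with five library-drug doses (not always all listed) spaced in √10 steps. Five days later, one step fixed the cells and stained their nuclei (final 0.05% Triton X-100, 1% formaldehyde, 1 ug/ml Hoechst), and nuclei were counted on 4× images. Relative viability is the nuclei count in treated wells divided by the count in vehicle wells, and each value is the median of duplicate plates.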

[2] = compound: CN1CCN(c2ccc3nc(-c4c(N)c5c(F)cccc5[nH]c4=O)[nH]c3c2)CC1 [Dovitinib] + CS(=O)(=O)CCNCc1ccc(-c2ccc3ncnc(Nc4ccc(OCc5cccc(F)c5)c(Cl)c4)c3c2)o1 [Lapatinib] (partner 2 µM)
How it was run: as §1

[3] = compound: CN1CCN(c2ccc3nc(-c4c(N)c5c(F)cccc5[nH]c4=O)[nH]c3c2)CC1 [Dovitinib] + C[C@]1(O)C[C@@H](c2nc(-c3ccc4ccc(-c5ccccc5)nc4c3)c3c(N)nccn32)C1 [Linsitinib] (partner 1 µM)
How it was run: as §1

[4] = compound: CN1CCN(c2ccc3nc(-c4c(N)c5c(F)cccc5[nH]c4=O)[nH]c3c2)CC1 [Dovitinib] + Cc1nc(NC(=O)N2CCC[C@H]2C(N)=O)sc1-c1ccnc(C(C)(C)C(F)(F)F)c1 [Alpelisib] (partner 2 µM)
How it was run: as §1

Cell Line	relative viability ([1]; first compound 0.02 µM)	relative viability ([1]; first compound 0.06325 µM)	relative viability ([1]; first compound 0.2 µM)	relative viability ([1]; first compound 0.6325 µM)	relative viability ([1]; first compound 2 µM)	relative viability ([2]; first compound 0.02 µM)	relative viability ([2]; first compound 0.06325 µM)	relative viability ([2]; first compound 0.2 µM)	relative viability ([2]; first compound 0.6325 µM)	relative viability ([2]; first compound 2 µM)	relative viability ([3]; first compound 0.02 µM)	relative viability ([3]; first compound 0.06325 µM)	relative viability ([3]; first compound 0.2 µM)	relative viability ([3]; first compound 0.6325 µM)	relative viability ([3]; first compound 2 µM)	relative viability ([4]; first compound 0.02 µM)	relative viability ([4]; first compound 0.06325 µM)	relative viability ([4]; first compound 0.2 µM)	relative viability ([4]; first compound 0.6325 µM)	relative viability ([4]; first compound 2 µM)
NCI-H23	0.486	0.599	0.665	0.605	0.534	1.02	1.09	1.05	1.13	1.17	0.546	0.664	0.623	0.57	0.506	0.788	0.638	0.766	0.631	0.627
NCI-H322M	0.518	0.526	0.557	0.502	0.608	0.5	0.53	0.587	0.657	0.57	0.945	0.853	0.973	0.943	0.892	0.84	0.774	0.792	0.809	0.776
NCI-H358	0.703	0.769	0.905	0.819	0.739	0.507	0.417	0.446	0.492	0.438	0.743	0.656	0.826	0.66	0.854	0.941	0.905	0.849	0.84	0.804
NCI-H460	0.587	0.842	0.708	0.708	0.721	0.913	1.05	1	0.878	1.03	0.758	0.904	0.834	0.74	0.777	0.421	0.562	0.524	0.395	0.426
NCI-H520	0.279	0.248	0.334	0.244	0.23	0.826	0.822	0.903	0.79	0.921	0.832	0.964	0.986	0.868	1.07	0.794	0.988	0.935	0.86	0.769
NCI-H596	0.644	0.776	0.669	0.808	0.779	1.05	1.13	1.14	0.894	1	1.03	1.01	1.09	0.96	0.954	0.462	0.542	0.563	0.499	0.457
NCI-H647	0.608	0.758	0.817	0.657	0.802	1.11	1.33	1.21	1.06	0.755	1.1	1.15	1.16	1.06	1.27	0.966	1.15	1.34	1.19	0.961
NCI-H650	0.503	0.515	0.538	0.521	0.565	0.91	0.819	0.784	0.896	1.12	0.953	0.675	0.839	0.95	1.01	1.13	0.972	1.07	0.997	1.2
NCI-H661	0.689	0.706	0.753	0.732	0.729	0.562	0.512	0.51	0.437	0.483	0.537	0.547	0.618	0.613	0.654	0.706	0.661	0.885	0.898	0.573
NCI-H727	0.778	0.434	0.589	0.653	0.548	0.904	0.629	0.673	0.882	0.91	0.271	0.325	0.314	0.298	0.408	0.673	0.642	0.476	0.48	0.47
NCI-H838	0.324	0.41	0.385	0.37	0.471	0.907	1.11	1.05	0.919	0.97	0.97	1.05	0.999	1.01	0.977	0.949	1.04	1.01	0.936	0.938
NCI-H1355	0.443	0.386	0.392	0.48	0.388	0.977	0.945	0.984	1.02	1.13	0.821	0.886	0.856	0.801	0.812	0.797	0.796	0.864	0.764	0.82
NCI-H1395	0.637	0.706	0.682	0.651	0.672	1.01	0.879	1.08	1.04	1.12	1.05	1.29	1.24	1.06	1.12	1.07	0.988	1.11	1.09	1.12
NCI-H1437	0.877	0.881	0.867	0.903	0.916	0.813	0.802	0.843	0.821	0.788	0.963	1.05	0.984	0.955	1.03	0.952	0.981	0.909	0.904	0.966
NCI-H1563	0.825	0.797	0.827	0.758	0.785	0.92	0.994	0.944	0.982	1.18	1.28	1.17	1.14	1.21	1.2	0.943	0.893	1.06	0.908	0.902
NCI-H1651	0.733	0.723	0.765	0.77	0.688	0.914	1	0.913	0.777	0.929	1.05	0.895	0.902	0.929	0.936	0.816	1.06	0.867	0.898	0.862
